Results on one compound are retold here after US6214881A, “IL-8 receptor antagonists” (SmithKline Beecham Corporation, priority 1999, dated 2001).

Molecules are shown by their SMILES.

The test system of the assay is recombinant human IL-8 type a and b receptors. Briefly: Receptor binding assays ([125I] IL-8 / 125I Gro-a, CHO membranes). To be noted: 125I IL-8 (0.25 nM) or 125I Gro-a; IL-8Ra or IL-8Rb membranes from Chinese hamster ovary cells; receptor subtype not specified for the result. On the procedure: The IL-8, and Gro-a chemokine inhibitiory effects of compounds of the present invention were determined by the following in vitro assay:
[^125 I] IL-8 (human recombinant) is obtained from Amersham Corp., Arlington Heights, Ill., with specific activity 2000 Ci/mmol. Gro-a is obtained from NEN-New England Nuclear. All other chemicals are of analytical grade. High levels of recombinant human IL-8 type a and b receptors are individually expressed in Chinese hamster ovary cells as described previously (Holmes, et al., Science, 1991, 253, 1278). The Chinese hamster ovary membranes are homogenized according to a previously described protocol (Haour. et al., J Biol Chem., 249 pp 2195-2205 (1974)). Except that the homogenization buffer is changed to 10 mM Tris-HCL, 1 mM MgSO4, 0.5 mM EDTA (ethylene-diaminetetra-acetic acid), 1 mMPMSF (a-toluenesulphonyl fluoride), 0.5 mg/L Leupeptin, pH 7.5. Membrane protein concentration is determined using Pierce Co. micro-assay kit using bovine serum albumin as a standard. All assays are performed in a 96-well micro plate format. Each reaction mixture contains ^125 I IL-8 (0.25 nM) or ^125 I Gro-a and 0.5 μg/mL of IL-8Ra or 1.0 μg/mL of IL-8Rb membranes in 20 mM Bis-Trispropane and 0.4 mM Tris HCl buffers, pH 8.0, containing 1.2 mM MgSO4, 0.1 mM EDTA, mM NaCl and 0.03% CHAPS. […] The filter is then dried and counted on the Betaplate liquid scintillation counter. […]

Turning to `Cc1ccc(S(=O)(=O)NC(=O)c2cccc(NC(=O)Nc3ccccc3Br)c2)cc1` [Example 1, N-[3-(4-methylphenylsulfonyl)carboxamido]-N'-(2-bromophenyl)urea], the “activity in receptor binding assay (inhibition of IL-8 / Gro-a binding)” value is reported as “active”.
